From US20230407245A1, “Media and methods for establishing and maintaining early embryo-like cells” (BGI SHENZHEN GROUP HOLDINGS CO., LIMITED, priority 2020, published 2023)

System: primed human PSCs
Experiment: Conversion of primed human PSCs to ICLCs, RT-qPCR of preimplantation ICM markers
Assay type: cell-based
Settings: for expression of preimplantation ICM markers (RT-qPCR) in ICLCs with a different dosage of one component, compared to primed human PSCs: H9, 4CL medium 1 with PD0325901 0.5 μM, TSA 20 nM, DZNep 5, 20 or 50 nM
Experimental: All provided human PSCs were routinely maintained on Matrigel™ or Geltrex™ coated plates in mTeSR1 or E8 medium. Generally, cells were passaged every 4 to 5 days with 0.5 mM EDTA. For passaging, cells were washed with PBS once and treated with 0.5 mM EDTA for 5 mins. Then, EDTA was removed and cells were detached as small clumps using a Pasteur pipette with mTeSR1 or E8 medium. Primed human PSCs were grown in an incubator under normoxic conditions (37° C., 5% CO2).
One day before initiation of conversion, primed human PSCs were washed with PBS once and dissociated into single cells and plated at a density of 1,000 to 1,500 cells/cm 2 on feeder in mTeSR1 or E8 medium supplemented with 10 μM Y27632. Twenty-four hours later, culture medium was switched to 4CL medium 1. The culture medium was refreshed with the same medium every 24 hours. Colonies became round and domed-shape in 24 to 48 hours. Cells were passaged every 3 to 4 days. For passaging, cells were dissociated into single cells using TrypLE: 0.5 mM EDTA (1:1) and plated at a density of 1,000 to 1,500 cells/cm 2 on feeder (feeders were seeded on Geltrex™/Matrigel™ pre-treated plate) (FIG. 1). The ICLCs induction and maintenance can be conducted under hypoxic condition (37° C., 5% CO2, 5% O2), or normoxic condition (37° C., 5% CO2, 21% O2) (FIG. 34), preferably hypoxia condition.
Using the same procedures of example 1, except plating cells on 1% (v/v) Geltrex™ in DMEM-F12 (cat #) coated plates instead of on feeder cells.
Primed human PSCs were cultured following the same procedures of example 1. One day before initiation of the conversion, primed human PSCs were dissociated into single cells and plated 60,000 cells/well in Aggrewell™ 800 plates using mTeSR1 or E8 medium supplemented with 10 μM Y27632. Twenty-four hours later, culture medium was changed into 4CL medium 1, culture condition was then switched to hypoxic condition. Cells formed small spheres in 3 days. The spheres were then lifted and transferred to flasks (Greiner Bio-One, 658190) for suspension culture. Medium was refreshed daily. Cells were passaged every 4 to 5 days. For passaging, cells were dissociated into single cells using TrypLE: 0.5 mM EDTA (1:1), then cells were resuspended in 4CL medium 1 at a density of 150,000 cells/ml. The resuspended cells were added into flasks (Greiner Bio-One, 658190) for suspension culture. Cells formed small aggregates in 24 hours. Generally, cells were converted to ICLCs in approximately 3 weeks after initiation.
Same as example 1, but different dosages of either PD0325901, DZNep, or TSA were also used: PD0325901, 0.5 μM; TSA, 20 nM; DZNep, 5 nM, 20 nM or 50 nM.

Row | SMILES | expression of preimplantation ICM markers (RT-qPCR) in ICLCs with a different dosage of one component, compared to primed human PSCs | expression levels of ICM specific genes such as DNMT3L, STELLA, DPPA5, KLF17 (final concentration of 40 to 70 ng/mL)
1 | Nc1nccc2c1ncn2[C@@H]1C=C(CO)[C@@H](O)[C@H]1O [DZNep, 3-deazaneplanocin A] | significantly induced | 
2 | O=C1O[C@H]([C@@H](O)CO)C(O)=C1O [L-ascorbic acid] |  | potently increases
3 | O=C(NOC[C@H](O)CO)c1ccc(F)c(F)c1Nc1ccc(I)cc1F [PD0325901] | significantly induced | 
4 | CC(/C=C/C(=O)NO)=C\[C@@H](C)C(=O)c1ccc(N(C)C)cc1 [TSA, trichostatin A] | significantly induced | 
